According to PMC11284788, “NN1213 – A Potent, Long-Acting, and Selective Analog of Human Amylin” (Journal of Medicinal Chemistry, 2024):
Numbered stars: 1 amine (or outer) side, 2 acyl side, 3 side chain; on linkers, the order of the positions; unused ones are H or OH. Bridge positions count the residues as written; N and C are the ends. Side chains are listed from the residue outwards. Peptide text beside a SMILES is read from it. * marks the point of attachment. C20 diacid = O=C(O)CCCCCCCCCCCCCCCCCCC(=O)*; γGlu = O=C(O)[C@H](CCC(=O)[*:2])N[*:1]

Experiments:
[1] = HMWP content by size-exclusion chromatography; type: physicochemical; details: covalent dimers and polymers prior to fibril formation testing, SEC, % of total absorbance area at 215 nm
Procedure, shortened: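 Amylin analogs analysed before fibril-formation testing by isocratic SEC in 0.5 M NaCl, 10 mM sodium dihydrogen phosphate, 5 mM ortho-phosphoric acid, 50% (v/v) 2-propanol. HMWP (covalent dimers/polymers) given as peak absorbance area percentage of total, assuming equal extinction coefficients for HMWP and main peak.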

hAMY3R = biological target: T1, hAMY3R (Homo sapiens, UniProt O60896+P30988); experiment: scintillation proximity binding assay, hAMY3R membranes; design: expressed in transfected cells; host or cells: BHK tk-ts 13, transient co-transfection; membranes for the SPA, whole cells for the species-specific assays; details: for ratio hCTR/hAMY3R: ratio of binding IC50 values
T1 sequence (P30988 25-474): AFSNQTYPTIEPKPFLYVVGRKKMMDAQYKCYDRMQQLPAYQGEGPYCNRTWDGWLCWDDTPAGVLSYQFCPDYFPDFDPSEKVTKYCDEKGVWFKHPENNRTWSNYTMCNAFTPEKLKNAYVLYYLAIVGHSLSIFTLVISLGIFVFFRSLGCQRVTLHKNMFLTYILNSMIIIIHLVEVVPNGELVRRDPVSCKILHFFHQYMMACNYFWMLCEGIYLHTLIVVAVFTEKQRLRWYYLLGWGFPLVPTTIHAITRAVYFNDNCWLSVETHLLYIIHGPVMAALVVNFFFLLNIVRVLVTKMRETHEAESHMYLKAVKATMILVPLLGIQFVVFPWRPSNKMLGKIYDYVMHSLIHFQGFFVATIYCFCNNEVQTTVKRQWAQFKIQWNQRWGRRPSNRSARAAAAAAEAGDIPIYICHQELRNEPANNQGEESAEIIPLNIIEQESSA
T1 sequence (O60896 24-148 partner): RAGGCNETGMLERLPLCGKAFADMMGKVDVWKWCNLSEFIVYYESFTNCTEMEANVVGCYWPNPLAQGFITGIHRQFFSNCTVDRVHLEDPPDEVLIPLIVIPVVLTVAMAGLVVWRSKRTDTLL
Experimental: The apparent binding affinities were determined using a scintillation proximity assay with beads from PerkinElmer and cell membranes containing the AMY3R or CTRs. […] Membranes were harvested and membranes were prepared and kept at −80 °C until use. The assay was performed in a 384-well Optiplate (PerkinElmer). Membranes were mixed with scintillation proximity assay beads in a 1:1 ratio. […] Samples were analyzed on a TopCounter (Packard). The IC50 values were calculated using GraphPad Prism. See Supporting Information S7: SAR Screening Assay Methods (Binding Assays (Human and Rat)) for more information.
Binding Assays (Human and Rat). Brief descriptions of the methods used to determine binding affinities for SAR analysis are described below. Curves and IC50 values were plotted and calculated in GraphPad Prism using nonlinear regression (one site binding competition analysis), with pIC50 values […]
values were used to calculate the binding affinity ratios in order to express the selectivity of compounds for the AMY3R versus the CTR.
CTR Binding Assay. The binding assay was performed using scintillation proximity assay (SPA) beads (RPNQ0001) from PerkinElmer and cell membranes containing either the hCTR or rCTR. BHK […]
(§1) Membranes were prepared in the following way: the cells were rinsed with PBS and incubated with Versene for approximately 5 min before harvesting. The cells were flushed with PBS and the cell-suspension was centrifuged for 5 min at 1000 rpm. Cells were homogenized (Ultra Turrax) in a buffer […]
containing 20 mM Na-HEPES and 0.1 mM EDTA (pH 7.4, buffer 2). The resulting pellet was re-suspended in buffer 2 and protein concentration was measured (BCA protein assay, Pierce). The homogenate was kept cold during the whole procedure. The membranes were stored at –80 °C until […]
The binding assay was performed in a 384-well Optiplate (PerkinElmer) in a total volume of 40 μL.
Membranes were mixed with SPA beads in a 1:1 ratio. […]
mg/well. Test compounds were dissolved in DMSO and further diluted in assay buffer (50 mM HEPES, pH 7.4, 1 mM CaCl2, 5 mM MgCl2, 0.1% ovalbumin, and 0.02% Tween-20).
Calcitonin (NEX422 PerkinElmer) was dissolved in assay buffer and added to the Optiplate at a final […]
prior to centrifugation (1500 rpm, 10 min). Samples were analyzed on TopCounter (Packard).
AMY3R Binding Assay. The binding assay was performed using SPA beads (RPNQ0001) from PerkinElmer and cell membranes containing either the hAMY3R or rAMY3R. BHK tk-ts 13 cells were […]
as §1, with “and cultured as described above. Membranes” for “Membranes”, “buffer containing 20 mM Na-HEPES and 10 mM EDTA (pH 7.4), and” for “buffer”
The resulting pellet was re-suspended, homogenized, and
7.4, buffer 2). The resulting pellet was re-suspended in buffer 2 and protein concentration was measured (BCA protein assay, Pierce). The homogenate was kept cold during the whole procedure.
The membranes were stored at –80 °C until use.
Membranes were mixed with SPA beads in a 1:1 ratio. The final concentration of SPA beads was 0.05 mg/well. Test compounds were dissolved in DMSO and further diluted in assay buffer (50 mM […]
rAMY (NEX448 PerkinElmer) was dissolved in assay buffer and added to the Optiplate at a final

Row | SMILES | HMWP ([1]; analogs 10–21 (pH 4.0 series)) | hAMY3R pIC50 (hAMY3R; SPA binding assay, Tables S13 and S15) | ratio hCTR/hAMY3R (hAMY3R) | HMWP ([1]; analogs 1–9 (pH 7.5 series))
1 | CC[C@H](C)[C@H](NC(=O)[C@H](C)NC(=O)CNC(=O)[C@H](Cc1ccccc1)NC(=O)[C@H](CC(N)=O)NC(=O)[C@@H]1CCCN1C(=O)[C@H](CO)NC(=O)[C@H](CO)NC(=O)[C@H](Cc1c[nH]cn1)NC(=O)[C@H](CCCNC(=N)N)NC(=O)[C@H](CC(C)C)NC(=O)[C@H](Cc1ccccc1)NC(=O)[C@H](CC(N)=O)NC(=O)[C@H](C)NC(=O)[C@H](CC(C)C)NC(=O)[C@H](CCCNC(=N)N)NC(=O)[C@H](CCC(N)=O)NC(=O)[C@@H](NC(=O)[C@H](C)NC(=O)[C@@H]1CSSC[C@H](NC(=O)[C@H](CCCCN)NC(=O)CC[C@H](NC(=O)CCCCCCCCCCCCCCCCCCC(=O)O)C(=O)O)C(=O)N[C@@H](CC(N)=O)C(=O)N[C@@H]([C@@H](C)O)C(=O)N[C@@H](C)C(=O)N[C@@H]([C@@H](C)O)C(=O)N1)[C@@H](C)O)C(=O)N1CCC[C@H]1C(=O)N[C@@H](CO)C(=O)N[C@@H](CO)C(=O)N[C@H](C(=O)N[C@@H](CC(N)=O)C(=O)N[C@H](C(=O)NCC(=O)N[C@@H](CO)C(=O)N[C@@H](CCCCN)C(=O)N[C@H](C(=O)N[C@@H](Cc1ccc(O)cc1)C(N)=O)[C@@H](C)O)C(C)C)[C@@H](C)O [Peptide 13] | 2.1% | 8.94 | 64 | –
2 | CC[C@H](C)[C@H](NC(=O)[C@H](C)NC(=O)CNC(=O)[C@H](Cc1ccccc1)NC(=O)[C@H](CC(N)=O)NC(=O)[C@@H]1CCCN1C(=O)[C@H](CO)NC(=O)[C@H](CO)NC(=O)[C@H](Cc1c[nH]cn1)NC(=O)[C@H](CCCNC(=N)N)NC(=O)[C@H](CC(C)C)NC(=O)[C@H](Cc1ccccc1)NC(=O)[C@H](CC(=O)O)NC(=O)[C@H](C)NC(=O)[C@H](CC(C)C)NC(=O)[C@H](CCCNC(=N)N)NC(=O)[C@H](CCC(N)=O)NC(=O)[C@@H](NC(=O)[C@H](C)NC(=O)[C@@H]1CSSC[C@H](NC(=O)[C@@H](N)CCCCNC(=O)CC[C@H](NC(=O)CC[C@H](NC(=O)CCCCCCCCCCCCCCCCCCC(=O)O)C(=O)O)C(=O)O)C(=O)N[C@@H](CC(N)=O)C(=O)N[C@@H]([C@@H](C)O)C(=O)N[C@@H](C)C(=O)N[C@@H]([C@@H](C)O)C(=O)N1)[C@@H](C)O)C(=O)N1CCC[C@H]1C(=O)N[C@@H](CO)C(=O)N[C@@H](CO)C(=O)N[C@H](C(=O)N[C@@H](CC(N)=O)C(=O)N[C@H](C(=O)NCC(=O)N[C@@H](CO)C(=O)N[C@@H](CC(=O)O)C(=O)N[C@H](C(=O)N[C@@H](Cc1ccc(O)cc1)C(N)=O)[C@@H](C)O)C(C)C)[C@@H](C)O [Peptide 6] (H-K([γGlu-γGlu-C20 diacid])CNTATCATQRLADFLRHSSPNFGAIPSSTNVGSDTY-NH2; disulfide 2-7) | – | – | 55 | 2.5%
3 | CC[C@H](C)[C@H](NC(=O)[C@H](C)NC(=O)CNC(=O)[C@H](Cc1ccccc1)NC(=O)[C@H](CC(N)=O)NC(=O)[C@@H]1CCCN1C(=O)[C@H](CO)NC(=O)[C@H](CO)NC(=O)[C@H](Cc1c[nH]cn1)NC(=O)[C@H](CCCNC(=N)N)NC(=O)[C@H](CC(C)C)NC(=O)[C@H](Cc1ccccc1)NC(=O)[C@H](CC(=O)O)NC(=O)[C@H](C)NC(=O)[C@H](CC(C)C)NC(=O)[C@H](CCCNC(=N)N)NC(=O)[C@H](CCC(N)=O)NC(=O)[C@@H](NC(=O)[C@H](C)NC(=O)[C@@H]1CSSC[C@H](NC(=O)[C@@H](N)CCCCNC(=O)CC[C@H](NC(=O)CC[C@H](NC(=O)CCCCCCCCCCCCCCCCCCC(=O)O)C(=O)O)C(=O)O)C(=O)N[C@@H](CC(N)=O)C(=O)N[C@@H]([C@@H](C)O)C(=O)N[C@@H](C)C(=O)N[C@@H]([C@@H](C)O)C(=O)N1)[C@@H](C)O)C(=O)N1CCC[C@H]1C(=O)N[C@@H](CO)C(=O)N[C@@H](CO)C(=O)N[C@H](C(=O)N[C@@H](CC(N)=O)C(=O)N[C@H](C(=O)NCC(=O)N[C@@H](CO)C(=O)N[C@@H](CCCNC(=N)N)C(=O)N[C@H](C(=O)N[C@@H](Cc1ccc(O)cc1)C(N)=O)[C@@H](C)O)C(C)C)[C@@H](C)O [NN1213] | 0.9% | – | 74 | –
4 | CC[C@H](C)[C@H](NC(=O)[C@H](C)NC(=O)CNC(=O)[C@H](Cc1ccccc1)NC(=O)[C@H](CC(N)=O)NC(=O)[C@@H]1CCCN1C(=O)[C@H](CO)NC(=O)[C@H](CO)NC(=O)[C@H](Cc1c[nH]cn1)NC(=O)[C@H](CCCNC(=N)N)NC(=O)[C@H](CC(C)C)NC(=O)[C@H](Cc1ccccc1)NC(=O)[C@H](CCC(=O)O)NC(=O)[C@H](C)NC(=O)[C@H](CC(C)C)NC(=O)[C@H](CCCNC(=N)N)NC(=O)[C@H](CCC(N)=O)NC(=O)[C@@H](NC(=O)[C@H](C)NC(=O)[C@@H]1CSSC[C@H](NC(=O)[C@@H](N)CCCCNC(=O)CC[C@H](NC(=O)CCCCCCCCCCCCCCCCCCC(=O)O)C(=O)O)C(=O)N[C@@H](CC(N)=O)C(=O)N[C@@H]([C@@H](C)O)C(=O)N[C@@H](C)C(=O)N[C@@H]([C@@H](C)O)C(=O)N1)[C@@H](C)O)C(=O)N1CCC[C@H]1C(=O)N[C@@H](CO)C(=O)N[C@@H](CO)C(=O)N[C@H](C(=O)N[C@@H](CC(N)=O)C(=O)N[C@H](C(=O)NCC(=O)N[C@@H](CO)C(=O)N[C@@H](CCCNC(=N)N)C(=O)N[C@H](C(=O)N[C@@H](Cc1ccc(O)cc1)C(N)=O)[C@@H](C)O)C(C)C)[C@@H](C)O [Peptide 20] (H-K([γGlu-C20 diacid])CNTATCATQRLAEFLRHSSPNFGAIPSSTNVGSRTY-NH2; disulfide 2-7) | 4.9% | – | 31 | –
5 | CC[C@H](C)[C@H](NC(=O)[C@H](C)NC(=O)CNC(=O)[C@H](Cc1ccccc1)NC(=O)[C@H](CC(N)=O)NC(=O)[C@@H]1CCCN1C(=O)[C@H](CO)NC(=O)[C@H](CO)NC(=O)[C@H](Cc1c[nH]cn1)NC(=O)[C@H](CCCNC(=N)N)NC(=O)[C@H](CC(C)C)NC(=O)[C@H](Cc1ccccc1)NC(=O)[C@H](CCC(=O)O)NC(=O)[C@H](C)NC(=O)[C@H](CC(C)C)NC(=O)[C@H](CCCNC(=N)N)NC(=O)[C@H](CCC(N)=O)NC(=O)[C@@H](NC(=O)[C@H](C)NC(=O)[C@@H]1CSSC[C@H](NC(=O)[C@H](CCCCN)NC(=O)CC[C@H](NC(=O)CCCCCCCCCCCCCCCCCCC(=O)O)C(=O)O)C(=O)N[C@@H](CC(N)=O)C(=O)N[C@@H]([C@@H](C)O)C(=O)N[C@@H](C)C(=O)N[C@@H]([C@@H](C)O)C(=O)N1)[C@@H](C)O)C(=O)N1CCC[C@H]1C(=O)N[C@@H](CO)C(=O)N[C@@H](CO)C(=O)N[C@H](C(=O)N[C@@H](CC(N)=O)C(=O)N[C@H](C(=O)NCC(=O)N1CCC[C@H]1C(=O)N[C@@H](CC(N)=O)C(=O)N[C@H](C(=O)N[C@@H](Cc1ccc(O)cc1)C(N)=O)[C@@H](C)O)C(C)C)[C@@H](C)O [Peptide 12] ({C20 diacid-γGlu}-KCNTATCATQRLAEFLRHSSPNFGAIPSSTNVGPNTY-NH2; disulfide 2-7) | 3.9% | – | 11 | –
